The values below come from US10988457B2, “TLR inhibitors” (Insilico Medicine IP Limited, priority 2019, dated 2021).

Read-outs that look alike come from different tables or passages of the source. Bounds are passed on as bounds.

Assay [1] concerns TLR7/8. Briefly: TLR7/8 Inhibition Assay IC50 in human PBMC's, cytokine release after CL075 stimulation (Luminex). Particulars: human PBMC's from one donor, CL075 2 μg/mL, 24 hours, eight concentrations 0.01-100 μM. The format is cell-based. As for the experimental part:
Cryopreserved human PBMC's were drip-thawed. Cells were diluted to the appropriate density (1×10^5 per well) and seeded into 96-well polypropylene plates with 150 μL per well of culture medium (RPMI 1640, 10% heat-inactivated FBS, 1% penicillin/streptomycin, 2 mM L-glutamine) for compound test wells.
Consequently, the final DMSO vehicle concentration in the assay was from 1 to 0.5%.
Than plates were centrifuged at 200×g for 10 minutes. […] Cytokine levels in each sample were determined using Luminex methodology, per the manufacturer's protocol.
The interpolated data were then normalized to the vehicle or unstimulated control.
Outlier calculation was performed using the Grubbs maximum normed residual test.
Eight test compounds were evaluated for their ability to inhibit the TLR7/8 in PBMC's from one human donor following incubation of 24 hours.

Assay [2] concerns TLR7/8. Particulars: reference compound 100 nM, CL075 2 μg/mL, human PBMC's, 24 hours. As for the experimental part:
Namely, in the present experiment their ability was evaluated to inhibit TLR7/8 in human PBMC's, as measured by the release of specific cytokines. The following cytokines were measured for a complete cytokine response profile (no dilution of samples): IL-1β, IL-6, IL-12p40, TNFα and IFNα.
Levels of each cytokine induction were interpolated from standard curves using a 5-parameter non-linear regression analysis, where y=(A+((B−A)/(1+(((B−E)/(E−A))*((x/C)^D))))). The interpolated data were then normalized to the vehicle control. Percent of control (PoC) was also calculated using the formula, PoC=(test sample/positive vehicle control)×100.
Cryopreserved human PBMC's were drip-thawed. Cells were diluted to the appropriate density (1×10^5 per well) and seeded into 96-well polypropylene plates with 150 μL per well of culture medium (RPMI 1640, 10% heat-inactivated Fetal Bovine Serum (FBS), 1% penicillin/streptomycin, 2 mM L-glutamine) for compound test wells. For the control wells, cells (1×10^5 per well) were plated in 150 μL per well of culture medium.
Cells were incubated at 37° C., 5% CO2 for 1 hour prior to the addition of test compounds or controls.
Test compounds were solubilized in DMSO to make 20× stock solutions, then diluted further with cell culture medium.
Test compounds were added to the PBMC's in volumes of 10 μL and incubated for 1 hour at 37° C., 5% CO2. Compounds were tested in duplicates at final assay concentrations of 10 μM.
Plates were incubated at 37° C., 5% CO2 for 24 hours. Plates were centrifuged at 200×g for 10 minutes. Cell culture supernatants were collected and stored at −80° C. until needed for analysis.
Harvested cell culture supernatants were measured for IL-1β, IL-6, IL-12p40, TNFα and IFNα release to assess dual TLR7/8 inhibition.

Setting [3] is: read-out: IC50 levels for test compounds, IFNα.
Where [4] appears, read: read-out: IC50 levels for test compounds, IL-1β.
The mark [5] stands for this setting: read-out: IC50 levels for test compounds, L-6.
Setting [6] is: read-out: IC50 levels for test compounds, L-12p40.
The mark [7] stands for this setting: read-out: IC50 levels for test compounds, TNFα.

In general, IC50 refers to the concentration that gives 50% inhibition. `N#Cc1ccc(N2CCCC(C(=O)NCCN3CCc4ccccc43)C2)c(F)c1` (stereo not drawn) [Compound 15]: the IC50 in assay [1] (setting [3]) was more than 20 µM; in assay [1] (setting [4]), not above 10 µM; in assay [1] (setting [5]) it was more than 20 µM; in assay [1] (setting [6]), 10 to 20 µM; in assay [1] (setting [7]) it was more than 20 µM.

For the compound `COc1ccc2c(c1)CCN(CCNC(=O)C1CCN(c3ccc(C(F)(F)F)cn3)CC1)C2` [Compound 22, N-(2-(6-methoxy-3,4-dihydroisoquinolin-2(19)-yl)ethyl)-1-(5-(trifluoromethyl)pyridin-2-yl)piperidine-4-carboxamide], the IC50 was not above 10 µM in assay [1] (setting [3]); more than 20 µM in assay [1] (setting [4]); more than 20 µM in assay [1] (setting [5]); more than 20 µM in assay [1] (setting [6]); more than 20 µM in assay [1] (setting [7]).

As for `COc1ccc2c(c1)CCN(CCNC(=O)C1CCCN(c3ccc(C#N)cc3)C1)C2` (stereo not drawn) [Compound 24], the IC50 in assay [1] (setting [3]) is not above 10 µM; in assay [1] (setting [4]) it was more than 20 µM; in assay [1] (setting [5]) it was more than 20 µM; in assay [1] (setting [6]), 10 to 20 µM; in assay [1] (setting [7]), more than 20 µM.

Take `COc1ccc2c(c1)CCN(CCNC(=O)C1CCCN(c3ccc(C#N)cc3F)C1)C2` (stereo not drawn) [Compound 25]: the IC50 in assay [1] (setting [3]) is not above 10 µM; in assay [1] (setting [4]), more than 20 µM; in assay [1] (setting [5]), not above 10 µM; in assay [1] (setting [6]), 10 to 20 µM; in assay [1] (setting [7]) it was more than 20 µM.

For the compound `COc1ccc2c(c1)CCN(CCCNC(=O)C1CCN(c3ccc(C#N)cc3)CC1)C2` [Compound 26], the IC50 was not above 10 µM in assay [1] (setting [3]); more than 20 µM in assay [1] (setting [4]); more than 20 µM in assay [1] (setting [5]); 10 to 20 µM in assay [1] (setting [6]); not above 10 µM in assay [1] (setting [7]).

On to `C[C@@H]1C[C@H]2[C@@H]3CCC4=CC(=O)C=C[C@]4(C)[C@@]3(F)[C@@H](O)C[C@]2(C)[C@@]1(O)C(=O)CO` [Dexamethasone, dexamethasone], for which, in assay [2], the “TLR7/8 Inhibition, IFNα (POC %)” value is reported as 26.1%; the “TLR7/8 Inhibition, IL-1β (POC %)” value was found to be 26.8%; the “TLR7/8 Inhibition, IL-6 (POC %)” value amounted to 34.7%; the “TLR7/8 Inhibition, IL-12p40 (POC %)” value is 34.2%. The “TLR7/8 Inhibition, TNFα (POC %)” value in assay [2] came out at 95.2%.
